Assay results published in ChEMBL document CHEMBL1146467, “A new phloroglucinol derivative from the brown alga Eisenia bicyclis: potential for the effective treatment of diabetic complications” (J Nat Prod, 2004).

Experiments:
[1] = Inhibition of alpha-amylase at 1 mM after 15 mins by dinitrosalicylic acid method relative to control
[2] = Inhibition of advanced glycation end product formation assessed as CML level at 1 mM after 7 days in 0.1 M phosphate buffer at pH 7.4 by ELISA relative to control; assay type: physicochemical; details: pH 7.4, 168 h, 1000 µM

Row | inhibition [1] [%] | inhibition (INH) [2] [%] | Structure (SMILES)
1 | 97.5 | 86.7 | Oc1cc(O)cc(Oc2c(O)cc(O)c3c2Oc2c(O)cc(Oc4c(O)cc(Oc5c(O)cc(O)c6c5Oc5c(O)cc(O)cc5O6)cc4O)cc2O3)c1 [DIECKOL]
2 | 87.5 | 96.2 | Oc1cc(O)cc(Oc2c(O)cc(O)c3c2Oc2c(O)cc(O)cc2O3)c1 [ECKOL]

Row | Structure (SMILES) | inhibition [1] [%] | inhibition (INH) [2] [%]
3 | N=C(N)NN [PIMAGEDINE] | – | 76
